Target: human CCR6 (Homo sapiens (Human), UniProt P51684)
Assay: Calcium activity assay on the FLIPR Tetra in HEK-Gqi5 cells stably expressing human CCR6 (MIP3α as positive control agonist)
Format: cell-based
Description: HEK-Gqi5 cells stably expressing human CCR6 were cultured in DMEM high glucose, 10% FBS, 1% PSA, 400 ug/ml geneticin and 50 ug/ml hygromycin. Appropriate positive control chemokine (MIP3α) was used as the positive control agonist for screening compound-induced calcium activity assayed on the FLIPR^Tetra. The drug plates were prepared in 384-well microplates using the EP3 and the MultiPROBE robotic liquid handling systems. Compounds disclosed herein were tested for CCR6 activity.

Sequence of human CCR6 (P51684 whole entry): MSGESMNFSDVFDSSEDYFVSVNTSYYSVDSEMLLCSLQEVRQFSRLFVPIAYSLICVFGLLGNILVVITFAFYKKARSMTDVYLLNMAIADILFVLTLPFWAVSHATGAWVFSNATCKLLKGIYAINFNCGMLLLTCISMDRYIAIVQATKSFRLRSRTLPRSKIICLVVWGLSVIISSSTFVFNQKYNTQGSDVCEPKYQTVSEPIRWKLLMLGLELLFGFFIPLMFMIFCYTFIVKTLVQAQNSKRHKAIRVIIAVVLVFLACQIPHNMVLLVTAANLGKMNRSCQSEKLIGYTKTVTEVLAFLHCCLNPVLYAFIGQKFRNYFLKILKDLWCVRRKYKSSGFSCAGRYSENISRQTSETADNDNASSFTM

CCR6 % Antagonism [%]	IC50 [nM]	Structure (SMILES)
98	31	CN1CCN(S(=O)(=O)c2c(Cl)ccc(Nc3c(NC4c5ccoc5CCC4(C)C)c(=O)c3=O)c2O)CC1 (stereo not shown) [Compound 49, 3-((4-chloro-2-hydroxy-3-((4-methylpiperazin-1-yl)sulfonyl)phenyl)amino)-4-((5,5-dimethyl-4,5,6,7-tetrahydrobenzofuran-4-yl)amino)cyclobut-3-ene-1,2-dione]
95	46	CCC(C)(Nc1c(Nc2ccc(Cl)c(C(=O)N(C)C)c2O)c(=O)c1=O)c1ccccc1 (stereo not shown) [Compound 72, 6-chloro-3-((3,4-dioxo-2-((2-phenylbutan-2-yl)amino)cyclobut-1-en-1-yl)amino)-2-hydroxy-N,N-dimethylbenzamide]

From US11208377B2, “3,4-disubstituted 3-cyclobutene-1,2-diones and use thereof” (ALLERGAN, INC., priority 2017, dated 2021)
